Laboratory results reported in patent publication US7884136B2, “Modified-release formulations of a bupropion salt” (Biovail Laboratories International S.R.L., priority 2005, dated 2011).

Columns and labels:
[1] = Forced degradation stability study of bupropion salts spiked with placebo/excipients, closed vials, 40° C./75% RH, HPLC assay and impurities
Procedure: The stability of the salts was evaluated based on the formation of the main degradation products (see below) as determined by HPLC analysis and the % potency (or assay) of the API, after specific time periods in the stability chamber. The effect of the addition of solvents, such as water, ethanol and isopropyl alcohol, was also studied.
The samples of each salt and the spiked salts with the bupropion HCl XL were prepared under the conditions mentioned in Table 4. […] The stability of the bupropion salts were evaluated based on the formation of the main degradation product 3-chlorobenzoic acid (3-CBZ) and the intermediate degradation products diketone 827U76 and the ketohydroxyl derivatives (20U78 and 852U77) (Scheme 2).
As mentioned above, the stability samples were prepared in 2 mL vials and used directly for assay and impurity analysis by HPLC without further sample preparations to minimize errors.

[2] = TGA experiment at 100° C., loss of API salt over time; format: physicochemical; settings: TGA at 100° C.
Procedure: (§1) The average weight of the excipients and the weight of the active pharmaceutical ingredient (API) present in the samples are presented in Table 72. […] FIG. 53 is a graph showing the loss of each salt over time in a TGA experiment at 100° C.

[3] = Moisture content of bupropion salts by KF; format: physicochemical
Procedure: (§2) The eight salts were first evaluated by HPLC, KF, pH and DSC for purity, water content, aqueous pH and possible polymorphs.
(§3) The salts were analysed by DSC (at 10° C./min from 30° C. up to 400° C.) and the pH (aq. 0.5%), and the moisture content by KF were also measured. The TGA was performed on the HCl, maleate, tosylate and HBr salts.

[4] = Forced degradation of bupropion HBr and HCl in the presence of excipients at 55° C., 55° C./100% RH, 100° C. and 105° C.; format: physicochemical; settings: 24 and 48 hours at 55° C., 105 degrees C., hydrobromide
Procedure: Forced degradation studies were also performed on bupropion HBr and bupropion HCl API's in the presence of standard excipients used in pharmaceutical formulations.
as §1, with “Further forced degradation studies were carried out at 55° C., at 55° C. and 100% relative humidity, at 100° C., and at 105° C. on both the HCl and HBr Bupropion salts in the presence of excipients. The” for “The”

[5] = Release of bupropion base from bupropion HCl and HBr; format: physicochemical
Procedure: It was previously observed that when 150 mg of bupropion HCl was tested for its release of bupropion, the base value that was released was 130 mg.

[6] = Comparative forced degradation of bupropion HCl and HBr API salts, closed glass bottle, 40° C./75% RH, HPLC; format: physicochemical; settings: for % Assay / % Impurities 3-CBZ / % Impurities 20U78/dilu / % Impurities 827U76 / % Impurities 852U77 / % Impurities Total unknown / Total (%) impurities: closed glass bottle
Procedure: Further stability tests were performed by directly comparing bupropion HBr and bupropion HCl salts in forced degradation studies. […] At specified times, the material in the bottles was analyzed for the presence of degradation products and % potency (% assay).
The samples were exposed to the above conditions in a closed bottle for few days, and then subjected to HPLC analysis. The amount of the main degradation products present after treatment were compared with those amounts that were present initially.
The samples were analysed after 14 and 24 days (study-1) and 10 days (study II), in a quantitative manner by direct treatment of the whole content of the bottle as per the HPLC standard test method (P05.901.10).

[7] = pH of 0.5% aqueous solution of bupropion salts; format: physicochemical
Procedure: as §2, §3

[8] = In IPA/EtOH, 32 days, closed vials
[9] = In water, 32 days, closed vials
[10] = salt plus excipients, 20 days, closed vial, 40° C./75% RH
[11] = repeat study, 40 C/75% RH, 10 Days, Lot# STN07491, hydrobromide
[12] = repeat study, 40 C/75% RH, 10 Days, Lot# STN07492, hydrobromide
[13] = repeat study, 40 C/75% RH, Initial, Lot# STN07491, hydrobromide
[14] = repeat study, 40 C/75% RH, Initial, Lot# STN07492, hydrobromide

Question: Which “Order of stability (assay) with IPA & EtOH” value ([1]; DS and excipients spiked with IPA & EtOH, 32 days, closed vials, 40° C.) does the source give for `Br.CC(NC(C)(C)C)C(=O)c1cccc(Cl)c1` (stereo not shown) [Bupropion HBr, bupropion hydrobromide] here?
Answer: HCl>HBr>tosylate>maleate>fumarate

Question: What about the “Order of stability (assay) with water” value ([1]; DS and excipients spiked with water, 32 days, closed vials, 40° C.) of the same compound?
Answer: tosylate>maleate>HCl>HBr>fumarate

Question: And the “Stability in the forced degradation stability studies, overall” value ([1]; DS and spiked DS, 40° C./75% RH)?
Answer: superior stability in a closed container

Question: And the “Content of impurity 3-CBZ, order of salts” value [1, 8]?
Answer: maleate > HBr > HCl > Fumarate

Question: And the “Content of impurity 852U77, order of salts” value [1, 8]?
Answer: fumarate > HBr ≈ HCl ≈ maleate ≈ tosylate

Question: And the “Total imp., order of salts” value [1, 8]?
Answer: fumarate > maleate > HBr > HCl > tosylate

Question: What about the “Content of impurity 3-CBZ, order of salts” value [1, 9] of the same compound?
Answer: HCl > HBr ≈ maleate ≈ fumarate

Question: What about the “Content of impurity 852U77, order of salts” value [1, 9] of the same compound?
Answer: fumarate > HBr > maleate > HCl

Question: What about the “Total imp., order of salts” value [1, 9] of the same compound?
Answer: fumarate > HBr > HCl > tosylate > maleate

Question: And the “Degradation products and retained activity compared with all salts tested” value ([1]; open and closed vials, 40 degrees C./75% RH, 'after at least 3 months or after at least 6 months')?
Answer: least amount of degradation products

Question: And the “Impurities (3-CBZ, 852U77 & total) compared to the other salts” value [1, 10]?
Answer: lowest

Question: What about the “Order of stability (assay, % potency)” value [1, 10] of the same compound?
Answer: HBr>HCl=tosylate>fumarate>maleate

Question: And the “Disproportionation of the salt at elevated temperature” value [2]?
Answer: did not occur

Question: What about the “Moisture Content (KF)” value ([3]; Table 3, supplier API) of the same compound?
Answer: 0.00%

Question: What about the “KF (moisture content), Original (Initial APIs)” value ([3]; original API salts) of the same compound?
Answer: 0.00%

Question: And the “Degradation in the presence of excipients (formation of impurities, words)” value ([4]; listed as HBr)?
Answer: lowest amount of degradation

Question: What about the “Degradation in the presence of excipients (formation of impurities, words)” value ([4]; listed as bupropion HBr) of the same compound?
Answer: significant improvements in stability compared to bupropion HCl

Question: What about the “Base value of bupropion released” value ([5]; 150 mg of the salt tested) of the same compound?
Answer: 112 mg

Question: What about the “Base value of bupropion released” value ([5]; 174 mg of the salt tested) of the same compound?
Answer: 130 mg

Question: And the “Impurities and % potency compared to the HCl salt” value ([6]; closed bottles, 40 degrees C. and 75% relative humidity)?
Answer: amount of impurities was consistently lower and the % potency was consistently higher

Question: What about the “% Assay” value ([6]; 40° C./75% RH, 14-Days) of the same compound?
Answer: 98.8%

Question: And the “% Impurities 3-CBZ” value ([6]; 40° C./75% RH, 14-Days)?
Answer: 0.015%

Question: And the “% Impurities 20U78/dilu” value ([6]; 40° C./75% RH, 14-Days)?
Answer: 0.048%

Question: What about the “% Impurities 827U76” value ([6]; 40° C./75% RH, 14-Days) of the same compound?
Answer: 0.012%

Question: What about the “% Impurities 852U77” value ([6]; 40° C./75% RH, 14-Days) of the same compound?
Answer: 0.058%

Question: And the “% Impurities Total unknown” value ([6]; 40° C./75% RH, 14-Days)?
Answer: 0.105%

Question: And the “Total (%) impurities” value ([6]; 40° C./75% RH, 14-Days)?
Answer: 0.23%

Question: What about the “% Assay” value ([6]; 40° C./75% RH, 24 Days) of the same compound?
Answer: 99.5%

Question: And the “% Impurities 3-CBZ” value ([6]; 40° C./75% RH, 24 Days)?
Answer: 0.022%

Question: What about the “% Impurities 20U78/dilu” value ([6]; 40° C./75% RH, 24 Days) of the same compound?
Answer: 0.038%

Question: What about the “% Impurities 827U76” value ([6]; 40° C./75% RH, 24 Days) of the same compound?
Answer: 0.016%

Question: What about the “% Impurities 852U77” value ([6]; 40° C./75% RH, 24 Days) of the same compound?
Answer: 0.052%

Question: What about the “% Impurities Total unknown” value ([6]; 40° C./75% RH, 24 Days) of the same compound?
Answer: 0.104%

Question: And the “Total (%) impurities” value ([6]; 40° C./75% RH, 24 Days)?
Answer: 0.23%

Question: What about the “% Assay” value ([6]; 40° C./75% RH, Initial) of the same compound?
Answer: 99.6%

Question: What about the “% Impurities 3-CBZ” value ([6]; 40° C./75% RH, Initial) of the same compound?
Answer: 0.007%

Question: What about the “% Impurities 20U78/dilu” value ([6]; 40° C./75% RH, Initial) of the same compound?
Answer: 0.044%

Question: And the “% Impurities 852U77” value ([6]; 40° C./75% RH, Initial)?
Answer: 0.009%

Question: What about the “% Impurities Total unknown” value ([6]; 40° C./75% RH, Initial) of the same compound?
Answer: 0.098%

Question: What about the “Total (%) impurities” value ([6]; 40° C./75% RH, Initial) of the same compound?
Answer: 0.16%

Question: And the “% Impurities 827U76” value ([6]; repeat study, 40 C/75% RH, 10 Days)?
Answer: 0.039%

Question: And the “% Assay” value [6, 11]?
Answer: 98.2%

Question: And the “% Impurities 3-CBZ” value [6, 11]?
Answer: 0.070%

Question: And the “% Impurities 20U78/dilu” value [6, 11]?
Answer: 0.051%

Question: And the “% Impurities 852U77” value [6, 11]?
Answer: 0.125%

Question: What about the “% Impurities Total unknown” value [6, 11] of the same compound?
Answer: 0.129%

Question: And the “Total (%) impurities” value [6, 11]?
Answer: 0.42%

Question: What about the “% Assay” value [6, 12] of the same compound?
Answer: 99.2%

Question: What about the “% Impurities 3-CBZ” value [6, 12] of the same compound?
Answer: 0.031%

Question: And the “% Impurities 20U78/dilu” value [6, 12]?
Answer: 0.044%

Question: And the “% Impurities 852U77” value [6, 12]?
Answer: 0.055%

Question: And the “% Impurities Total unknown” value [6, 12]?
Answer: 0.15%

Question: And the “Total (%) impurities” value [6, 12]?
Answer: 0.24%

Question: What about the “% Impurities 20U78/dilu” value ([6]; repeat study, 40 C/75% RH, Initial) of the same compound?
Answer: 0.041%

Question: And the “% Assay” value [6, 13]?
Answer: 99.5%

Question: And the “% Impurities 3-CBZ” value [6, 13]?
Answer: 0.011%

Question: And the “% Impurities Total unknown” value [6, 13]?
Answer: 0.129%

Question: And the “Total (%) impurities” value [6, 13]?
Answer: 0.17%

Question: And the “% Assay” value [6, 14]?
Answer: 99.6%

Question: And the “% Impurities 3-CBZ” value [6, 14]?
Answer: 0.007%

Question: What about the “% Impurities Total unknown” value [6, 14] of the same compound?
Answer: 0.194%

Question: What about the “Total (%) impurities” value [6, 14] of the same compound?
Answer: 0.23%

Question: What about the “pH (aq. 0.5%), Original (Initial APIs)” value ([7]; 0.5% aqueous solution, original API salts) of the same compound?
Answer: 5.92

Question: What about the “pH (aq. 0.5%)” value ([7]; Table 3, supplier API) of the same compound?
Answer: 5.92
